Assay results published in patent EP4603105A1, “PHARMACEUTICAL COMPOSITION CONTAINING CYCLIC COMPOUND HAVING SELECTIVE KRAS INHIBITORY EFFECT AGAINST HRAS AND NRAS” (CHUGAI SEIYAKU KABUSHIKI KAISHA, priority 2022, dated 2024).
*1 amine or outer side, *2 acyl side, *3 side chain or, on linkers, in order; H or OH if unused. Where a SMILES comes first, the peptide text is derived from it. Bridges are numbered along the chain shown (N, C = ends). [ ]: non-standard residue; d: D form. The star is where a group is joined. hPhe(3-Cl-4-CF3) = N[C@@H](CCc1ccc(C(F)(F)F)c(Cl)c1)C(=O)O; X43 = COCCCN([C@@H](Cc1ccc(C(F)(F)F)cc1)C(=O)[*:2])[*:1]; NPrPhe(4-CF3) = CCCN[C@@H](Cc1ccc(C(F)(F)F)cc1)C(=O)O; NEtPhe(4-CF3) = CCN[C@@H](Cc1ccc(C(F)(F)F)cc1)C(=O)O; hPhe(3,4-Cl2) = N[C@@H](CCc1ccc(Cl)c(Cl)c1)C(=O)O; NMeGly(cPent) = CN[C@H](C(=O)O)C1CCCC1; NMeD = CN[C@@H](CC(=O)O)C(=O)O; NMeL = CN[C@@H](CC(C)C)C(=O)O; Morpholide = C1CN(*)CCO1; Ac5c = NC1(C(=O)O)CCCC1; Ac4c = NC1(C(=O)O)CCC1; Sar = CNCC(=O)O

Tests used:
[1] = system: human lung cancer strain NCI-H441; format: cell-based
How it was run: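 Step one: dispense the test compound in serial DMSO dilutions. Step three: add the reagent and measure […].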

HRAS wild-type protein = HRAS wild-type protein (Homo sapiens, UniProt P01112); assay: Binding to HRAS by surface plasmon resonance (SPR), KD and KD ratio to KRAS
Chain of HRAS wild-type protein (P01112 whole entry): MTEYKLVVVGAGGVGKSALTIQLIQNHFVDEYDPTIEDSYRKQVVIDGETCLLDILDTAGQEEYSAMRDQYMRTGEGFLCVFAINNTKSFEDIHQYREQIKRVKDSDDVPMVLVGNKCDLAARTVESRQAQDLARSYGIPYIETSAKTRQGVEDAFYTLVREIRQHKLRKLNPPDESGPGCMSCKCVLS
How it was run: (§1)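 Running buffer contained 10 µM GDP and 10 mM MgCl2 to keep RAS in the GDP state, with 4% DMSO at pH 7.4. Compounds were flowed at 100 µL/min in 75 s steps of rising concentration over captured biotin-Avi RAS at 30°C. Sensorgrams were fitted 1:1 for KD.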

[2] = biological target: GDP-bound NRAS wild-type protein (Homo sapiens, UniProt P01111); assay: Binding to NRAS by surface plasmon resonance (SPR), KD and KD ratio to KRAS
Chain of GDP-bound NRAS wild-type protein (P01111 whole entry): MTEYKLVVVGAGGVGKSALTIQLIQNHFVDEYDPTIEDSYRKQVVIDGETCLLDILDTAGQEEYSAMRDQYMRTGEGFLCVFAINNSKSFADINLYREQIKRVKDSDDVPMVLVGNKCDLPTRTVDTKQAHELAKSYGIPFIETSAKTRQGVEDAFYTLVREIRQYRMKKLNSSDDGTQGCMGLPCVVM
How it was run: as §1

[3] = ratio of KD for HRAS wild-type protein to KD for KRAS
[4] = ratio of KD for GDP-bound NRAS wild-type protein to KD for KRAS
[5] = ratio of the KD value with respect to HRAS wild-type protein to the KD value with respect to KRAS
[6] = ratio of the KD value with respect to GDP-bound NRAS wild-type protein to the KD value with respect to KRAS

Structure (SMILES) | IC50 [1] [nM] | HRAS /KRAS (HRAS wild-type protein; [3]) | NRAS /KRAS [2, 4] | HRAS /KRAS (HRAS wild-type protein; ratio of KD value for HRAS wild-type protein to KD value for KRAS (SPR)) | NRAS /KRAS ([2]; ratio of KD value for GDP-bound NRAS wild-type protein to KD value for KRAS (SPR)) | HRAS /KRAS (HRAS wild-type protein; [5]) | NRAS /KRAS [2, 6]
CCCN1C(=O)CN(C)C(=O)CNC(=O)[C@H]([C@@H](C)CC)NC(=O)[C@H](CC(C)C)N(C)C(=O)C[C@@H](C(=O)N(C)C)NC(=O)[C@H](C2CCCC2)N(C)C(=O)C2(CCC2)NC(=O)[C@@H]2CCCN2C(=O)[C@H](CCc2ccc(C(F)(F)F)c(Cl)c2)NC(=O)CN(C)C(=O)[C@@H]1Cc1ccc(C(F)(F)F)cc1 [PP0362] ([NMeL]IG[Sar][NPrPhe(4-CF3)][Sar][hPhe(3-Cl-4-CF3)]P[Ac4c][NMeGly(cPent)]D-NMe2; lactam N-11) | 149 | B (a compound having 3 or more and less than 10 is denoted as B) | B (a compound having 3 or more and less than 10 is denoted as B) | – | – | – | –
CC[C@H](C)[C@@H]1NC(=O)[C@H](COC)N(C)C(=O)C[C@@H](C(=O)N2CCOCC2)N(C)C(=O)[C@H](C2CCCC2)N(C)C(=O)C2(CCC2)NC(=O)[C@@H]2CCN2C(=O)[C@H](CCc2cc(F)c(C(F)(F)F)c(F)c2)NC(=O)CN(C)C(=O)[C@H](Cc2ccc(C(F)(F)F)cc2)N2CCCCC[C@@H](C2=O)N(C)C(=O)CN(C)C1=O [PP0840] | 572 | B (a compound having 3 or more and less than 10 is denoted as B) | B (a compound having 3 or more and less than 10 is denoted as B) | – | – | – | –
CCO[C@@H]1C[C@H]2C(=O)NC3(CC(C)(C)C3)C(=O)N(C)[C@@H](C3CCCC3)C(=O)N(C)[C@H](C(=O)N3CCCCC3)CC(=O)N(C)[C@@H](CC)C(=O)N[C@@H]([C@@H](C)CC)C(=O)N(C)CC(=O)N(C)[C@H]3C/C=C\CCN(C3=O)[C@@H](Cc3ccc(C(F)(F)F)cc3)C(=O)N(C)CC(=O)N[C@@H](CCc3cc(F)c(C(F)(F)F)c(F)c3)C(=O)N2C1 [PP1945] | 33.8 | – | – | – | – | A (a compound having 10 or more and less than 20 is denoted as A) | AA (a compound having 20 or more is denoted as AA)
CCC[C@H]1C(=O)N[C@@H]([C@@H](C)CC)C(=O)N2CCC[C@H]2C(=O)N(C)[C@H]2C/C=C\CCN(C2=O)[C@@H](CC2CCCCC2)C(=O)N(C)CC(=O)N[C@@H](CCc2ccc(C(F)(F)F)c(OC)c2)C(=O)N2C[C@H](OCC)C[C@H]2C(=O)N(C)C2(CCC2)C(=O)N(C)[C@@H](C2CCCC2)C(=O)N(C)[C@H](C(=O)N(C)C)CC(=O)N1C [PP2344] | 44.9 | – | – | – | – | A (a compound having 10 or more and less than 20 is denoted as A) | A (a compound having 10 or more and less than 20 is denoted as A)

The next compounds have a lower IC50 [1] than those just listed; values first:

IC50 [1] [nM] | Structure (SMILES) | HRAS /KRAS (HRAS wild-type protein; [3]) | NRAS /KRAS [2, 4] | HRAS /KRAS (HRAS wild-type protein; ratio of KD value for HRAS wild-type protein to KD value for KRAS (SPR)) | NRAS /KRAS ([2]; ratio of KD value for GDP-bound NRAS wild-type protein to KD value for KRAS (SPR)) | HRAS /KRAS (HRAS wild-type protein; [5]) | NRAS /KRAS [2, 6]
6.4 | CC[C@H](C)[C@@H]1NC(=O)[C@H](CC(C)C)N(C)C(=O)C[C@@H](C(=O)N2CCOCC2)N(C)C(=O)[C@H](C2CCCC2)N(C)C(=O)C2(CCCC2)NC(=O)[C@@H]2CCCN2C(=O)[C@H](CCc2ccc(C(F)(F)F)c(Cl)c2)NC(=O)CN(C)C(=O)[C@H](Cc2ccc(C(F)(F)F)cc2)N(CCCOC)C(=O)CN(C)C(=O)CN(C)C1=O [PP0133] ([NMeL]I[Sar][Sar][X43][Sar][hPhe(3-Cl-4-CF3)]P[Ac5c][NMeGly(cPent)][NMeD]-Morpholide; lactam N-11) | C (A compound having a KD ratio of 0.1 or more and less than 3 is denoted as C) | B (a compound having 3 or more and less than 10 is denoted as B) | – | – | – | –
4 | CC[C@H](C)[C@@H]1NC(=O)[C@H](CC(C)C)N(C)C(=O)C[C@@H](C(=O)N2CCOCC2)N(C)C(=O)[C@H](C2CCCC2)N(C)C(=O)C2(CCCC2)NC(=O)[C@@H]2CCCN2C(=O)[C@H](CCc2ccc(Cl)c(Cl)c2)NC(=O)CN(C)C(=O)[C@H](Cc2ccc(C(F)(F)F)cc2)N(CC)C(=O)CN(C)C(=O)CN(C)C1=O [PP0237] ([NMeL]I[Sar][Sar][NEtPhe(4-CF3)][Sar][hPhe(3,4-Cl2)]P[Ac5c][NMeGly(cPent)][NMeD]-Morpholide; lactam N-11) | C (A compound having a KD ratio of 0.1 or more and less than 3 is denoted as C) | B (a compound having 3 or more and less than 10 is denoted as B) | – | – | – | –
2.2 | CCO[C@@H]1C[C@H]2C(=O)NC3(CC(C)(C)C3)C(=O)N(C)[C@@H](C3CCCC3)C(=O)N(C)[C@H](C(=O)N(C)C)CC(=O)N(C)[C@@H](CC(C)C)C(=O)N[C@@H]([C@@H](C)CC)C(=O)N(C)CC(=O)N(C)[C@H]3C/C=C\CCN(C3=O)[C@@H](Cc3ccc(C(F)(F)F)cc3)C(=O)N(C)CC(=O)N[C@@H](CCc3ccc(C(F)(F)F)c(Cl)c3)C(=O)N2C1 [PP1751] | – | – | A (a compound having 10 or more and less than 20 is denoted as A) | A (a compound having 10 or more and less than 20 is denoted as A) | – | –
